This is an account of results in patent publication US8501713B2, “Drug combinations for the treatment of duchenne muscular dystrophy” (Summit Corporation PLC, priority 2007, dated 2013).

SMILES strings stand for the structures.

This assay deals with Utrophin A promoter linked to a luciferase reporter gene. The assay can be described thus: Luciferase reporter assay (murine H2K cells). As to conditions: luciferase reporter assay in murine H2K cells; classified relative to control. It is filed as cell-based. The method, boiled down: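 Compound at 10 μM final was applied for 48 hrs to plated H2K mdx myoblasts (33° C, 10% CO2, interferon-containing medium) bearing a luciferase gene under the utrophin A promoter. Luminescence from lysed cells served as read-out.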
Background: Reporter assays use an easily measured gene product as a stand-in for the process of interest.

As for `Oc1cccc(-c2nc3ccccc3s2)c1` [Example 594], the Activity entry is recorded as “++++ (Above 401% relative to control)”.
Regarding `Clc1ccc(-c2nc3ccccc3s2)c(Cl)c1` [Example 595], the Activity result is “++ (Between 201% and 300% relative to control)”.
Turning to `COc1ccc(-c2nc3ccccc3s2)cc1O` [Example 596], the Activity entry is “++++ (Above 401% relative to control)”.
The same measure for `COc1ccc(-c2nc3ccccc3s2)cc1N` [Example 597]: “+++ (Between 301% and 400% relative to control)”; for `Nc1ccc2nc(-c3cccc(Cl)c3)oc2c1` [Example 598]: “+++ (Between 301% and 400% relative to control)”; for `Cc1cc(-c2nc3ccccc3s2)ccc1[N+](=O)[O-]` [Example 599]: “++++ (Above 401% relative to control)”.
`COc1cccc(-c2nc3ccccc3[nH]2)c1` [Example 600]: the Activity result was “++ (Between 201% and 300% relative to control)”.
Take `Nc1ccc(-c2nc3ccccc3s2)cc1` [Example 601]: the Activity result was “+++ (Between 301% and 400% relative to control)”.
The result for `Nc1cccc(-c2nc3ccccc3s2)c1` [Example 602] reads “+++ (Between 301% and 400% relative to control)”.
The same measure for `Cc1ccc(-c2nc3cc(N)ccc3o2)cc1C` [Example 603]: “+++ (Between 301% and 400% relative to control)”; for `O=[N+]([O-])c1ccc2nc(-c3ccccc3)[nH]c2c1` [Example 604]: “+++ (Between 301% and 400% relative to control)”.
`Cc1ccc2[nH]c(-c3ccc([N+](=O)[O-])cc3)nc2c1` [Example 605]: the Activity result was “+++ (Between 301% and 400% relative to control)”.
On to `COc1cccc(-c2nc3ccccc3s2)c1` [Example 606], for which the Activity result was “+++ (Between 301% and 400% relative to control)”.
As to `Cc1cc(-c2nc3ccccc3o2)ccc1[N+](=O)[O-]` [Example 607], the Activity result was “++++ (Above 401% relative to control)”.
Take `c1ccc2sc(-c3ccc4c(c3)OCO4)nc2c1` [Example 608]: the Activity entry was “++++ (Above 401% relative to control)”.
The result for `CCC(C)c1ccc2oc(-c3ccc(N)cc3)nc2c1` (stereo not drawn) [Example 609] reads “+++ (Between 301% and 400% relative to control)”; that for `Cc1cc2nc(-c3ccc(N)cc3O)oc2cc1C` [Example 610], “++++ (Above 401% relative to control)”; that for `Cc1ccc2nc(-c3ccc(C(F)(F)F)cc3)oc2c1` [Example 611], “+++ (Between 301% and 400% relative to control)”.
`Cc1ccc2oc(-c3cccs3)nc2c1` [Example 612]: the Activity entry was “++ (Between 201% and 300% relative to control)”.
The same measure for `Cc1ccc(-c2nc3ccccc3[nH]2)cc1` [Example 613]: “+++ (Between 301% and 400% relative to control)”; for `O=C(COc1ccc2c(c1)OCO2)Nc1nc2ccccc2s1` [Example 614]: “+ (Up to 200% relative to control)”; for `CCn1c(C)nc2cc(C(=O)Nc3ccccc3)ccc21` [Example 615]: “++++ (Above 401% relative to control)”.
For `O=C(Nc1nc2ccccc2s1)c1ccccc1Br` [Example 616], the Activity entry was “++++ (Above 401% relative to control)”.
For the compound `O=C(CSc1nc2ccccc2s1)N1CCCCC1` [Example 617], the Activity result is on record as “++++ (Above 401% relative to control)”.
`O=C(Nc1ccc2c(c1)OCO2)c1sc2ccccc2c1Cl` [Example 618]: the Activity entry is on record as “++++ (Above 401% relative to control)”.
On to `COc1ccc(-c2nc3ccccc3o2)cc1N` [Example 619], for which the Activity entry is “++++ (Above 401% relative to control)”.
Turning to `Cc1ccc(-c2nc3ccccc3[nH]2)cc1N` [Example 620], the Activity entry was “++++ (Above 401% relative to control)”.
Consider `O=C(Nc1ccccc1F)c1sc2ccccc2c1Cl` [Example 621], for which the Activity result is reported as “++++ (Above 401% relative to control)”.
In the case of `Nc1cccc(-c2nc3cc(Cl)ccc3o2)c1` [Example 622], the Activity result is given as “++++ (Above 401% relative to control)”.
In the case of `Cc1cc2nc(-c3cccc(NC(=O)c4ccco4)c3)oc2cc1C` [Example 623], the Activity result was “++++ (Above 401% relative to control)”.
For `CCc1ccc2oc(-c3ccc(C)c(N)c3)nc2c1` [Example 625], the Activity result is listed as “++++ (Above 401% relative to control)”.
Turning to `O=C(Nc1nc2ccccc2s1)c1cc2ccccc2o1` [Example 626], the Activity entry is “++++ (Above 401% relative to control)”.
The result for `Cc1cc(C)c2oc(-c3ccc(Cl)c(N)c3)nc2c1` [Example 627] reads “++++ (Above 401% relative to control)”.
The result for `Nc1c(C(=O)Nc2ccc(F)cc2)sc2nc3c(cc12)CCC3` [Example 628] reads “++++ (Above 401% relative to control)”; that for `O=C(Nc1nc2ccc(F)cc2s1)c1ccccc1Br` [Example 629], “++++ (Above 401% relative to control)”.
Turning to `COc1ccc2oc(-c3cccc(N)c3)nc2c1` [Example 630], the Activity result is recorded as “++++ (Above 401% relative to control)”.
The same measure for `CCC(C)C(=O)Nc1ccc(-c2nc3ccccc3[nH]2)cc1` (stereo not drawn) [Example 631]: “++++ (Above 401% relative to control)”; for `Cc1ccc2[nH]c(-c3sc4nc(C)ccc4c3N)nc2c1` [Example 632]: “++++ (Above 401% relative to control)”.
In the case of `c1ccc(OCc2nc3ccccc3s2)cc1` [Example 633], the Activity entry is “+++ (Between 301% and 400% relative to control)”.
The same measure for `CCn1c(C)nc2cc(-c3ccccc3)ccc21` [Example 634]: “+++ (Between 301% and 400% relative to control)”; for `Cc1ccc2nc(-c3ccc(C)c(N)c3)oc2c1` [Example 635]: “+++ (Between 301% and 400% relative to control)”.
In the case of `Cc1ccc2oc(-c3ccc(Cl)c(N)c3)nc2c1` [Example 636], the Activity entry is “+++ (Between 301% and 400% relative to control)”.
Take `Cc1ccc(NC(=O)Nc2nc3ccccc3s2)cc1` [Example 637]: the Activity entry was “+++ (Between 301% and 400% relative to control)”.
Consider `Cc1ccc2nc(-c3ccc(NC(=O)c4cccnc4)cc3)sc2c1` [Example 638], for which the Activity entry is “+++ (Between 301% and 400% relative to control)”.
`c1ccc2nc(-c3nc4ccccc4s3)ccc2c1` [Example 639]: the Activity result was “+++ (Between 301% and 400% relative to control)”.
As for `COc1ccc(CSc2nc3ccccc3[nH]2)cc1` [Example 640], the Activity entry was “+++ (Between 301% and 400% relative to control)”.
As to `O=C(Nc1ccc(-c2nc3ncccc3o2)cc1)c1ccccc1Cl` [Example 641], the Activity entry was “+++ (Between 301% and 400% relative to control)”.
Consider `CCc1ccc2oc(-c3cccc(NC(C)=O)c3)nc2c1` [Example 642], for which the Activity result was “+++ (Between 301% and 400% relative to control)”.
As to `Cc1ccc2nc(-c3ccc(O)cc3)sc2c1` [Example 643], the Activity entry was “+++ (Between 301% and 400% relative to control)”.
On to `CCC(=O)Nc1cccc(-c2nc3cc(C)ccc3o2)c1` [Example 644], for which the Activity entry is “+++ (Between 301% and 400% relative to control)”.
`COc1ccc(CSc2nc3ccccc3n2C)cc1F` [Example 645]: the Activity entry is “+++ (Between 301% and 400% relative to control)”.
In the case of `Cc1cc2nc(-c3cc(N)ccc3Cl)oc2cc1C` [Example 646], the Activity result is “+++ (Between 301% and 400% relative to control)”.
Turning to `c1cc(NCc2ccncc2)cc(-c2nc3ccccc3s2)c1` [Example 647], the Activity entry was “+++ (Between 301% and 400% relative to control)”.
Turning to `Cc1ccccc1C(=O)Nc1nc2ccccc2[nH]1` [Example 648], the Activity result was “+++ (Between 301% and 400% relative to control)”.
Consider `Cc1cc(-c2nc3cc(N)ccc3o2)ccc1Br` [Example 649], for which the Activity entry is “+++ (Between 301% and 400% relative to control)”.
Take `Cc1cccc(NC(=O)c2sc3nc(C)cc(C)c3c2N)c1` [Example 650]: the Activity result was “+++ (Between 301% and 400% relative to control)”.
The result for `CC(C)C(=O)Nc1ccc(-c2nc3ccccc3s2)cc1` [Example 651] reads “+++ (Between 301% and 400% relative to control)”.
With `Cc1ccc2nc(NC(=O)c3ccco3)sc2c1` [Example 652], the Activity result was “+++ (Between 301% and 400% relative to control)”.
For the compound `Nc1cc(-c2nc3ccccc3[nH]2)ccc1Cl` [Example 653], the Activity entry is “+++ (Between 301% and 400% relative to control)”.
In the case of `Cc1ccc2nc(-c3ccc(NC(=O)CSc4nnc[nH]4)cc3)sc2c1` [Example 654], the Activity result is “+++ (Between 301% and 400% relative to control)”.
Consider `CC(=O)Oc1ccc(C(=O)Nc2ccc(-c3nc4ccccc4[nH]3)cc2)cc1` [Example 655], for which the Activity entry is “+++ (Between 301% and 400% relative to control)”.
As to `Cc1cc2oc(C(=O)NCc3ccncc3)c(C)c2cc1C` [Example 656], the Activity result is “+++ (Between 301% and 400% relative to control)”.
The same measure for `CCOCC(=O)Nc1ccc(-c2nc3ccc(C)cc3s2)cc1` [Example 657]: “+++ (Between 301% and 400% relative to control)”; for `O=C(Nc1nc2ccc(F)cc2s1)c1cccs1` [Example 658]: “+++ (Between 301% and 400% relative to control)”; for `Cc1nn(-c2nc3ccccc3[nH]2)c(N)c1-c1ccccc1` [Example 659]: “+++ (Between 301% and 400% relative to control)”.
With `CCOCCC(=O)Nc1ccc(-c2nc3ccc(C)cc3s2)cc1` [Example 660], the Activity entry is “+++ (Between 301% and 400% relative to control)”.
Consider `O=C(Nc1ccc(-c2nc3ccccc3s2)cc1)C1CC1` [Example 661], for which the Activity entry is “+++ (Between 301% and 400% relative to control)”.
As to `CC(=O)Nc1ccc(-c2nc3cc(C)ccc3o2)cc1` [Example 662], the Activity entry is “+++ (Between 301% and 400% relative to control)”.
The result for `Cc1ccc(NC(=O)C(=O)c2c[nH]c3ccccc23)c(Br)c1` [Example 663] reads “+++ (Between 301% and 400% relative to control)”.
